Experimental data taken from publication PMC5421785, “Citrullination only infrequently impacts peptide binding to HLA class II MHC” (PLoS ONE, 2017).
Where two headings read alike, the source gives them in different places. Square brackets hold non-standard residues; d marks the D form. Ends that are not written are not given here. Peptide text beside a SMILES is read from it. Cit = NC(=O)NCCC[C@H](N)C(=O)O

Key:
HLA-DRB1*04:01 = target: T1, HLA-DRB1*04:01 (Homo sapiens, UniProt P01903+P01911, A100K/A169T/F76Y/I96L/K127E/L162R/M171V/N62H/P40V/Q125Y/R42H/S133A/S149N/S66Y/V115G/V209L/W38E); test: HLA class II peptide binding, inhibition of radiolabeled peptide binding to purified MHC
T1 construct: EBV transformed homozygous cell lines were used as sources of MHC molecules; endogenous in cells; host or cells: EBV transformed homozygous cell lines

HLA-DRB1*01:01 = target: T2, HLA-DRB1*01:01 (Homo sapiens, UniProt P01903+P01911, A100R/D57E/F55L/F60I/F76Y/I96L/L162R/M171V/P40L/Q125E/R42F/V115G/Y59C); test: as above
T2 construct: EBV transformed homozygous cell lines were used as sources of MHC molecules; endogenous in cells; host or cells: EBV transformed homozygous cell lines

[1] = wild-type (unmodified Arg) 15-mer peptide, purified HLA-DRB1*04:01, read-out: DRB1*04:01 binding capacity, WT peptide (IC50 nM)
[2] = wild-type (unmodified Arg) 15-mer peptide, purified HLA-DRB1*01:01, read-out: DRB1*01:01 binding capacity, WT peptide (IC50 nM)
[3] = citrullinated 15-mer peptide (X = citrulline), purified HLA-DRB1*04:01, read-out: DRB1*04:01 binding capacity, Cit peptide (IC50 nM)
[4] = citrullinated 15-mer peptide (X = citrulline), purified HLA-DRB1*01:01, read-out: DRB1*01:01 binding capacity, Cit peptide (IC50 nM)
[5] = ratio of WT IC50 to Cit IC50, >1 = citrullination increases binding
[6] = citrullinated 15-mer (X), purified MHC, inhibition of radiolabeled peptide binding, dash = IC50 >40,000 nM, read-out: DRB1*04:01 binding capacity, Cit peptide (IC50 nM)
[7] = citrullinated 15-mer (X), purified MHC, inhibition of radiolabeled peptide binding, dash = IC50 >40,000 nM, read-out: DRB1*01:01 binding capacity, Cit peptide (IC50 nM)

| IC50 (HLA-DRB1*04:01; [1]) | IC50 (HLA-DRB1*01:01; [2]) | IC50 (HLA-DRB1*04:01; [3]) | IC50 (HLA-DRB1*01:01; [4]) | Compound | further results |
| --- | --- | --- | --- | --- | --- |
| > 40000 nM | 239 nM |  |  | GIAGAPGFPGPRGPP [Collagen 426 WT] |  |
|  |  | 4300 nM | 470 nM | CC[C@H](C)[C@H](NC(=O)[C@@H](N)CCC(=O)O)C(=O)N[C@@H](C)C(=O)N[C@H](C(=O)N[C@@H](Cc1ccc(O)cc1)C(=O)N[C@@H](CCCNC(=N)N)C(=O)N[C@@H](CCCCN)C(=O)N[C@@H](CC(C)C)C(=O)N[C@@H](CC(C)C)C(=O)N[C@@H](CCC(=O)O)C(=O)NCC(=O)N[C@@H](CCC(=O)O)C(=O)N[C@@H](CCC(=O)O)C(=O)N[C@@H](CO)C(=O)N[C@@H](CCCNC(N)=O)C(=O)O)[C@@H](C)O [EIATYRKLLEGEESX] (H-EIATYRKLLEGEES[Cit]-OH) |  |
|  |  | > 40000 nM | 594 nM | CC(C)C[C@H](NC(=O)CNC(=O)[C@H](CCCNC(=N)N)NC(=O)[C@H](CCC(=O)O)NC(=O)CNC(=O)[C@@H]1CCCN1C(=O)[C@H](CCC(=O)O)NC(=O)CNC(=O)[C@H](C)N)C(=O)N[C@@H](CCCCN)C(=O)NCC(=O)N[C@@H](Cc1c[nH]cn1)C(=O)N[C@@H](CCCNC(N)=O)C(=O)NCC(=O)N[C@@H](Cc1ccccc1)C(=O)O [AGEPGERGLKGHXGF] (H-AGEPGERGLKGH[Cit]GF-OH) |  |
|  |  | 768 nM | 642 nM | CC[C@H](C)[C@H](NC(=O)[C@@H](NC(=O)[C@H](CC(=O)O)NC(=O)[C@H](CCC(N)=O)NC(=O)[C@H](Cc1ccc(O)cc1)NC(=O)[C@H](CC(N)=O)NC(=O)[C@H](C)NC(=O)[C@H](C)NC(=O)[C@H](CCC(=O)O)NC(=O)[C@@H](NC(=O)[C@H](C)NC(=O)[C@@H](N)Cc1ccccc1)C(C)C)[C@@H](C)O)C(=O)NCC(=O)N[C@@H](CCCNC(N)=O)C(=O)N[C@@H](CC(C)C)C(=O)O [FAVEAANYQDTIGXL] (H-FAVEAANYQDTIG[Cit]L-OH) |  |
|  |  | > 40000 nM | > 40000 nM | C[C@H](NC(=O)CNC(=O)[C@@H]1CCCN1C(=O)[C@H](CO)NC(=O)CNC(=O)[C@H](CCC(=O)O)NC(=O)[C@@H](N)CCCNC(N)=O)C(=O)N[C@@H](CC(=O)O)C(=O)NCC(=O)N1CCC[C@H]1C(=O)N1CCC[C@H]1C(=O)NCC(=O)N[C@@H](CCCNC(=N)N)C(=O)N[C@@H](CC(=O)O)C(=O)NCC(=O)O [XEGSPGADGPPGRDG] (H-[Cit]EGSPGADGPPGRDG-OH; N-terminus and C-terminus assumed) | DRB1*04:01 binding capacity, WT/cit ratio (HLA-DRB1*04:01; [5]): 1.0; DRB1*01:01 binding capacity, WT/cit ratio (HLA-DRB1*01:01; [5]): 1.0 |
| > 40000 nM | > 40000 nM |  |  | QDGQRYNDKDVWKPE [Collagen 36 WT] |  |
|  |  |  |  | CSCC[C@H](NC(=O)[C@H](Cc1ccc(O)cc1)NC(=O)[C@H](CCC(N)=O)NC(=O)[C@H](CC(C)C)NC(=O)[C@@H]1CCCN1C(=O)[C@H](CC(=O)O)NC(=O)[C@@H]1CCCN1C(=O)CNC(=O)[C@H](CCCCN)NC(=O)[C@H](CCC(=O)O)NC(=O)[C@H](CCCNC(=N)N)NC(=O)[C@@H]1CCCN1C(=O)CNC(=O)[C@@H](N)CC(C)C)C(=O)N[C@@H](CCCNC(N)=O)C(=O)O [LGPREKGPDPLQYMX] (H-LGPREKGPDPLQYM[Cit]-OH) | IC50 (HLA-DRB1*04:01; citrullinated peptide as listed (X at Cit position), read-out: DRB1*04:01 binding capacity Cit peptide (IC50 nM)): > 40000 nM; IC50 (HLA-DRB1*04:01; value of the wild-type (non-citrullinated) counterpart of the listed peptide, read-out: DRB1*04:01 binding capacity WT peptide (IC50 nM)): > 40000 nM; IC50 (HLA-DRB1*01:01; citrullinated peptide as listed (X at Cit position), read-out: DRB1*01:01 binding capacity Cit peptide (IC50 nM)): 19700 nM |
| 21600 nM | 729 nM |  |  | DRGDVGEKGPEGAPG [Collagen 766 WT] |  |
| 7000 nM | 326 nM |  |  | CC[C@H](C)[C@H](N)C(=O)N[C@@H](CO)C(=O)N[C@@H](CC(C)C)C(=O)N1CCC[C@H]1C(=O)N[C@@H](CC(C)C)C(=O)N1CCC[C@H]1C(=O)N[C@@H](CC(N)=O)C(=O)N[C@@H](Cc1ccccc1)C(=O)N[C@@H](CO)C(=O)N[C@@H](CO)C(=O)N[C@@H](CC(C)C)C(=O)N[C@@H](CC(N)=O)C(=O)N[C@@H](CC(C)C)C(=O)N[C@@H](CCCNC(=N)N)C(=O)N[C@@H](CCC(=O)O)C(=O)O [Vimentin 411 WT] |  |
|  |  |  |  | CC(C)C[C@H](NC(=O)[C@H](CC(C)C)NC(=O)[C@H](CCCNC(N)=O)NC(=O)[C@@H](NC(=O)CNC(=O)[C@@H]1CCCN1C(=O)[C@@H](NC(=O)[C@H](CO)NC(=O)[C@H](CO)NC(=O)[C@H](CCCNC(=N)N)NC(=O)[C@H](CC(C)C)NC(=O)[C@H](CCCNC(=N)N)NC(=O)[C@@H](NC(=O)[C@H](C)NC(=O)[C@@H](N)CO)C(C)C)C(C)C)C(C)C)C(=O)O [SAVRLRSSVPGVXLL] (H-SAVRLRSSVPGV[Cit]LL-OH) | IC50 (HLA-DRB1*04:01; [6]): 641 nM; IC50 (HLA-DRB1*01:01; [7]): 9.7 nM |
| 912 nM | 11100 nM |  |  | ERQMREMEENFAVEA [Vimentin 341 WT] |  |
|  |  |  |  | CC(C)C[C@H](NC(=O)[C@H](CO)NC(=O)[C@H](C)NC(=O)[C@H](CC(N)=O)NC(=O)[C@@H](N)CC(=O)O)C(=O)N[C@@H](C)C(=O)N[C@@H](CCCNC(=N)N)C(=O)N[C@@H](CC(C)C)C(=O)N[C@@H](CC(=O)O)C(=O)N[C@@H](CC(C)C)C(=O)N[C@@H](CCC(=O)O)C(=O)N[C@@H](CCCNC(N)=O)C(=O)N[C@@H](CCCCN)C(=O)N[C@H](C(=O)N[C@@H](CCC(=O)O)C(=O)O)C(C)C [DNASLARLDLEXKVE] (H-DNASLARLDLE[Cit]KVE-OH) | IC50 (HLA-DRB1*04:01; [6]): > 40000 nM; IC50 (HLA-DRB1*01:01; [7]): 10900 nM |
|  |  |  |  | CC(C)C[C@H](NC(=O)[C@H](CC(=O)O)NC(=O)[C@H](CC(C)C)NC(=O)[C@H](CCCNC(=N)N)NC(=O)[C@H](C)NC(=O)[C@H](CC(C)C)NC(=O)[C@H](CO)NC(=O)[C@H](C)NC(=O)[C@H](CC(N)=O)NC(=O)[C@H](CC(=O)O)NC(=O)[C@@H](NC(=O)[C@H](CC(=O)O)NC(=O)[C@H](CCC(N)=O)NC(=O)[C@H](CCCNC(N)=O)NC(=O)[C@@H](N)Cc1ccccc1)C(C)C)C(=O)O [FXQDVDNASLARLDL] (H-F[Cit]QDVDNASLARLDL-OH) | IC50 (HLA-DRB1*04:01; [6]): 280 nM; IC50 (HLA-DRB1*01:01; [7]): 7990 nM |
